Source: patent US20230203096A1, “EPHA4 TARGETING COMPOUNDS AND METHODS OF USE THEREOF” (priority 2020, published 2023)
Entries after “also recorded” stand apart in the source; their conditions may differ. Square brackets hold non-standard residues; d marks the D form. Peptide text beside a SMILES is read from it. * marks the point of attachment. Cyclohexanoyl(1S,3S-3-NH2) = N[C@H]1CCC[C@H](C(=O)*)C1; Trp(5-OH) = N[C@@H](Cc1c[nH]c2ccc(O)cc12)C(=O)O; NH(4-morpholinophenyl) = c1cc(N2CCOCC2)ccc1N*; Bip = N[C@@H](Cc1ccc(-c2ccccc2)cc1)C(=O)O; hArg = N=C(N)NCCCC[C@H](N)C(=O)O

Legend:
EphA3-LBD Chimera = EphA3-LBD Chimera (Homo sapiens, UniProt P54764, C204A/E77D/G52H/I159L/I59G/M164L/M60V/R37K/V157M); experiment: Isothermal titration calorimetry (ITC) against EphA3-LBD chimera; conditions: listed as 150D4
Sequence of EphA3-LBD Chimera (P54764 29-209 R37K/G52H/I59G/M60V/E77D/V157M/I159L/M164L/C204A): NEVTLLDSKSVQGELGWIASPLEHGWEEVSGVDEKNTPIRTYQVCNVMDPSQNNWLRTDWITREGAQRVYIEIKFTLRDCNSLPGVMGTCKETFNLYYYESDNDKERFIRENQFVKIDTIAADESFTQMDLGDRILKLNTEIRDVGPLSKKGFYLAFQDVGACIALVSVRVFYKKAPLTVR
Protocol: (§1) Isothermal titration calorimetry (ITC) measurements were performed using the Affinity ITC Autosampler from TA Instruments (New Castle, Del.). The titrations were performed in a reverse fashion by titrating the protein into the ligand solution. […] The injections were made at 200 s or 400 s intervals with a stirring speed of 75 rpm. All the solutions were kept in the autosampler at 4° C. The analysis of the thermodynamics signatures and for dissociation constant determination was performed by the NanoAnalyze software (TA Instruments, New Castle, Del.) and subsequently exported into Microsoft Excel.

EphA4 = EphA4 (Mus musculus, UniProt Q03137); experiment: EphA4 phosphorylation in primary spinal cord motor neurons (IP/western blot); conditions: 1 μM or 10 μM, 30 min
Sequence of EphA4 (Q03137 20-986): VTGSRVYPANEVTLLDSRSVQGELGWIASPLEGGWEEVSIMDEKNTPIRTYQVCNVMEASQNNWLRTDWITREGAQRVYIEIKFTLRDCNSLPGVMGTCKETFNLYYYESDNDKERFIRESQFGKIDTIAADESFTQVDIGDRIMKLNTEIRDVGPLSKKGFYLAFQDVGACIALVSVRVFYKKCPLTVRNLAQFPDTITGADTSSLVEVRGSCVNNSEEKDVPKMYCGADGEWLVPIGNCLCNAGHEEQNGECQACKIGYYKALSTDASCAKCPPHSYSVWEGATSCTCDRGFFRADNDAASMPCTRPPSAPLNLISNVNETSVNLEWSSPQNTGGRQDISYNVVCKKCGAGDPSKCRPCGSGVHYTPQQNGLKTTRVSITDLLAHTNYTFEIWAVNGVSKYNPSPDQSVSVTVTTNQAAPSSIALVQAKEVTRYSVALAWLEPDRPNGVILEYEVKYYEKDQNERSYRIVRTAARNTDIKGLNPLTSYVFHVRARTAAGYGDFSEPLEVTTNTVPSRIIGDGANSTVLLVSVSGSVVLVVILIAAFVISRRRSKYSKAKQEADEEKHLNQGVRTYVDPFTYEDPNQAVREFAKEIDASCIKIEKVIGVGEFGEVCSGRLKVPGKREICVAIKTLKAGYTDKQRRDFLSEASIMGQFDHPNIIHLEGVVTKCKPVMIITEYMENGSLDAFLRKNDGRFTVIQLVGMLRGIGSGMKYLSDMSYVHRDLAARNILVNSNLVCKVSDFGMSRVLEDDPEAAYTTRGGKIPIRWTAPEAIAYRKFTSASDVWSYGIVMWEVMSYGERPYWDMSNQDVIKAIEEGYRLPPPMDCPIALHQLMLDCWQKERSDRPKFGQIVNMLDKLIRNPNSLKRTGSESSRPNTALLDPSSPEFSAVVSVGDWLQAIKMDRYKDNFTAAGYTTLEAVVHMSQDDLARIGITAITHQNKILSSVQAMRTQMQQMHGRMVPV

EphA2-LBD = EphA2-LBD (Homo sapiens, UniProt P29317); experiment: Isothermal titration calorimetry (ITC) against EphA2-LBD
Sequence of EphA2-LBD (P29317 27-200): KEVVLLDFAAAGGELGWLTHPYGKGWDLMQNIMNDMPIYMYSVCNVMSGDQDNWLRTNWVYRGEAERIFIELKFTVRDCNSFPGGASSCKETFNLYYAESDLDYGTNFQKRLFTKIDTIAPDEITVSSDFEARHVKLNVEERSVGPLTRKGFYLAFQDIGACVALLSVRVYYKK
Protocol: as §1

[1] = biological target: T1, recombinant EphA4 ligand binding domain (Homo sapiens, UniProt P54764, C204A); experiment: Isothermal titration calorimetry (ITC) against EphA4-LBD; conditions: ITC, EphA4-LBD
T1 construct: His tag (N); made in house; host or cells: E. coli Rosetta-Gami B(DE3), pET15b
T1 sequence (P54764 29-209 C204A): as the sequence (P54764 29-209 R37K/G52H/I59G/M60V/E77D/V157M/I159L/M164L/C204A) above, with K9R, H24G, G31I, V32M, D49E, M129V, L131I, L136M counted along it
Protocol: Peptides were synthesized by using standard solid-phase synthesis protocol, using the BAL resin as anchoring for the C-terminal amines. Isothermal Titration Calorimetry (ITC) measurements were performed in a reverse fashion by titrating the protein into the ligand solution. Solution nuclear magnetic resonance (NMR) experiments were conducted on a 700 MHz Bruker Avance spectrometer equipped with a TCI cryoprobe. Each protein sample was dissolved into an NMR tube at a final concentration of 20 μM (1% DMSO-d6) in the presence of 20 μM of each compound.
The fragments were transformed into Rosetta-Gami B(DE3) competent cells and grown in LB medium at 37° C. with 100 μg/mL of ampicillin until reaching an OD600 of 0.6-0.7 followed by induction with 0.4 mM IPTG overnight at 20° C. Bacteria were then collected by centrifugation and lysed by sonication at 4° C. […] EphA4 LBD with ^13C^ε/^1H^ε-Met labeled was expressed like previously described but adding a suspension of 100 mg of ^13C^ε/^1H^ε-Methionine in 1 mL of DMSO per liter of LB medium, 10 minutes before induction. […] Transformation, expression, and purification of EphA3-LBD chimera was performed as described above for EphA4-LBD.
Isothermal titration calorimetry (ITC) measurements were performed using the Affinity ITC Autosampler from TA Instruments (New Castle, Del.). The titrations were performed in a reverse fashion by titrating the protein into the ligand solution. […] The syringe was filled with a 100 μM solution of EphA4-LBD, EphA3-LBD Chimera, or EphA2-LBD, and 20 injections of 2.5 μL each were performed into the cell containing a 20 μM solution of the compounds. The injections were made at 200 s or 400 s intervals with a stirring speed of 75 rpm. All the solutions were kept in the autosampler at 4° C. The analysis of the thermodynamics signatures and for dissociation constant determination was performed by the NanoAnalyze software (TA Instruments, New Castle, Del.) and subsequently exported into Microsoft Excel.

N=C(N)NCCCC[C@H](NC(=O)[C@H](Cc1ccc(-c2ccccc2)cc1)NC(=O)[C@H](Cc1c[nH]c2ccc(O)cc12)NC(=O)[C@H]1CCC[C@H](N)C1)C(=O)NCC(=O)Nc1ccc(N2CCOCC2)cc1 [Compound 8, (1S,3S)—N—((S)-1-(((S)-3-([1,1′-biphenyl]-4-yl)-1-(((S)-6-guanidino-1-((2-((4-morpholinophenyl)amino)-2-oxoethyl)amino)-1-oxohexan-2-yl)amino)-1-oxopropan-2-yl)amino)-3-(5-hydroxy-1H-indol-3-yl)-1-oxopropan-2-yl)-3-aminocyclohexane-1-carboxamide] ({Cyclohexanoyl(1S,3S-3-NH2)}-[Trp(5-OH)][Bip][hArg]G-{NH(4-morpholinophenyl)})
binding to EphA3 (in words) (EphA3-LBD Chimera): limited binding; also recorded: markedly reduced affinity
EphA4 receptor phosphorylation (pEphA4/total EphA4) (EphA4): more significantly active than others
binding to EphA2 (in words) (EphA2-LBD): limited binding
-TΔS [1]: -0.88 kcal/mol
AH [1]: -8.49 kcal/mol
Kd ([1]; read-out: Kd (nM)- ITC): 113 nM
